Tests used:
splenocytes [1] = assay: Splenocyte proliferation after in vitro stimulation with peptides or GALNS (Examples 2, 4); format: cell-based, mouse; details: for proliferation of splenocytes relative to age of the animal and length of treatment: MKC mice, weeks of infusion; for splenocyte proliferation response: splenocytes of MKC mice treated by ERT with GALNS, in vitro peptide stimulation
Experimental: (§1) Mice (MKC) genetically engineered not to express GALNS were used in these examples. […] 200 μl of the emulsion were administered as a subcutaneous injection. […] Control mice (n=2) were immunized with PBS emulsified in CFA and IFA respectively (Chung et al. (2005) J. Leukoc Biol. 77(6):906-13)). […] A control group (n=5) received PBS (Tomatsu et al. (2008) Hum Mol Genet. 15; 17(6):815-24). […]
Ten days after the last immunization or the last infusion, the mice were euthanized and the spleen was aseptically removed. […] The suspension was centrifuged at 1000 rpm […]. The red blood cells were lysed using a hypotonic lysis buffer (Sigma® R7757). […] Cells were pulsed with 1 JpCi of [3H]thymidine for the last 18 h of incubation. [3H]thymidine incorporation was measured by […] (Trilux Microbeta Counter). The Stimulation Index (SI) was calculated as the mean value of the three wells for each condition divided by the mean value of the unstimulated cells (Mirano-Bascos (2010) J Virol. 84(7):3303-11).

splenocytes [2] = assay: Secreted cytokine profile of splenocytes, retest in MKC mice (Example 7); format: cell-based, mouse; details: for IL-5 secretion, ERT treated vs PBS controls, p or significance / IL-13 secretion, ERT treated vs PBS controls, p or significance / profile of secreted cytokines, ERT treated vs PBS treated mice: MKC mice; for profile of secreted cytokines, ERT treated vs PBS treated mice: 16 i.v. infusions
Experimental: The predicted peptides from Example 1 were reevaluated in MKC mice to reaffirm the selection of peptides 4, 8, and 10. […] A control group received PBS. […] The suspension was centrifuged at 1,000 rpm during 10 minutes. […] The specificity of cellular response against the peptides or the complete enzyme in the in vitro stimulation was determined by splenocyte proliferation or cytokine secretion in ERT treated mice or PBS injected control mice.
Cytokines were determined in the cell culture supernatants. […] Cells were centrifuged at 1,000 rpm during 10 min. Secreted cytokines (IL-4, IL-5, IL-13, and IFN-γ) in the collected supernatants were detected by a bead immunoassay kit which allow the measurement of multiple proteins simultaneously (LUMINEX xMAP Technology, using a Millipore Milliplex™ kit) according to manufacturer's instructions (FIG. 5).

splenocytes [3] = assay: Secreted cytokines of splenocytes in Morquio A mouse models and WT mice treated by ERT (Examples 10-13); format: cell-based; details: for IL-4 secretion / IL-5 secretion: MTol mice
Experimental: (§2) Morquio A mouse models: a). […] 14(22): p. 3321-35).c). Missense mutation mice (Galnstm (C76S) SLU C2) (Tomatsu et al. (2007) Mol Genet Metab., 91(3): p. 251-8), and wild-type C57BL6 mice were treated by ERT. […] A control group received PBS.
(§3) The suspension was centrifuged at 1,000 rpm during 10 minutes.
Cytokines were determined in the cell culture supernatants. […] Cells were centrifuged at 1000 rpm during 10 min. Secreted cytokines (IL-4, IL-5, IL-13, and IFN-γ) in the collected supernatants were detected by a bead immunoassay kit which allow the measurement of multiple proteins simultaneously (LUMINEX xMAP Technology, using a Millipore Milliplex™ kit) according to manufacturer's instructions.

splenocytes [4] = assay: Screening of peptides by splenocytes proliferation, retest in MKC mice (Examples 5-6); format: cell-based, mouse; details: MKC mice, 16, 22 and 24 infusions; with higher number of infusions
Experimental: of body weight through the tail vein. A control group received PBS. […] The suspension was centrifuged at 1,000 rpm during 10 minutes. […] The specificity of cellular response against the peptides or the complete enzyme in the in vitro stimulation was determined by splenocyte proliferation or cytokine secretion in ERT treated mice or PBS injected control mice. […] 3H-Thymidine incorporation was measured by β-Scintillation counter (Trilux Microbeta Counter). Proliferation data are expressed as counts per minute (cpm) values (FIG. 5). (Mirano-Bascos et al. (2010) J Virol. 84(7): p. 3303-11).

splenocytes [5] = assay: Cytokine production by splenocytes after in vitro stimulation (Example 3); format: cell-based, mouse; details: splenocytes of MKC mice treated by ERT with GALNS; culture supernatant
Experimental: as §1
The production of cytokines after peptide stimulation was evaluated as intracellular staining (by flow cytometry) and secreted cytokines (by LUMINEX). […] The cells were treated with 1 μl of a protein transport inhibitor BD GolgiPlug™ during 5 h at 37° C., saturated humidity and 5% CO2. The suspension of cells was centrifuged at 1000 rpm during 10 minutes. The supernatants were collected by further analysis with LUMINEX. The Fc receptors were blocked with 1 μl of α-mouse CD16/32 (e-Bioscience) during 15 min at 4° C. After washing, the cells were stained with PE-Cy7-labeled anti-mouse CD4 and Alexa700-labeled anti-mouse CD8 antibodies during 30 min at 4° C. After two washes, cells were permeabilized with a BD fixation/permeabilization solution during 20 min at 4° C. Cells were washed two times and stained with a cocktail of antibodies for intracellular staining (PE-labeled anti-mouse IL-4, APC-labeled anti-mouse IL-5 and FITC-labeled anti-mouse IFN-γ). After two washes, cells were analyzed by flow cytometry. Secreted cytokines (IL-4, IL-5, IL-13, IL-17 and IFN-γ) in the collected supernatants were detected by using a bead immunoassay kit which allows the measurement of multiple proteins simultaneously (LUMINEX technology, using a Millipore Milliplex™ kit).

splenocytes [6] = assay: Splenocytes proliferation in Morquio A mouse models and WT mice treated by ERT (Example 9); format: cell-based
Experimental: as §2, §3
Thymidine incorporation was measured by β-Scintillation counter (Trilux Microbeta Counter) Mirano-Bascos, et al. (2010) J Virol. 84(7): p. 3303-11).

Sequence	proliferation of splenocytes relative to age of the animal and length of treatment (splenocytes [1])	splenocyte proliferation response (splenocytes [1])	IL-5 secretion, ERT treated vs PBS controls, p or significance (splenocytes [2])	IL-13 secretion, ERT treated vs PBS controls, p or significance (splenocytes [2])	profile of secreted cytokines, ERT treated vs PBS treated mice (splenocytes [2])	IFN-γ secretion, MKC vs MTol mice treated by ERT, p or significance (splenocytes [3])	IL-4 secretion (splenocytes [3])	IL-5 secretion (splenocytes [3])	IFN-γ secretion, ERT treated vs PBS controls of the same strain (splenocytes [3]; all mice (MKC, C2, WT, MTol))	IL-5 secretion, ERT treated vs PBS controls (splenocytes [3]; any of the mice models)	relationship between number of weekly i.v. infusions and cpm values of splenocytes proliferation (splenocytes [4])	secretion of cytokines IL-5 and IFN-γ (splenocytes [5])	splenocytes proliferation, ERT treated vs PBS controls (splenocytes [6]; C2 mice)	splenocytes proliferation, ERT treated vs PBS controls (splenocytes [6]; MKC mice)	splenocytes proliferation, ERT treated vs PBS controls (splenocytes [6]; WT mice)	levels of secreted IFN-γ among the peptides and GALNS (splenocytes [2]; MKC mice treated by ERT)	IFN-γ secretion compared with the other stimuli (splenocytes [3]; mice treated by ERT)
FFLYWAVDATHAPVYASKPF (listed as Homo sapiens) [Peptide E8]	highest response at 16 weeks	strong response	did not induce a significant IL-5 response	not statistically significant	statistically significant difference	not statistically significant	did not present secretion of IL-4	did not present secretion of IL-5	statistically significant levels	did not induce IL-5 secretion	lower levels of proliferation	strong response	statistically significant difference	statistically significant	statistically significant difference	–	–
PNCHFGPYDNKARPNIPVYR (listed as Homo sapiens) [Peptide C4]	highest response at 16 weeks	strong response	0.028	not statistically significant	statistically significant difference	–	did not present secretion of IL-4	did not present secretion of IL-5	–	–	lower levels of proliferation	strong response	statistically significant difference	statistically significant	statistically significant difference	highest levels	strongest response
